According to patent publication US10920265B2, “Compounds and methods for detection of enzymes that remove methyl succinyl groups from epsilon-amino lysine moieties” (Enzo Life Sciences, Inc., priority 2011, dated 2021):
*: point of attachment. AMC = Cc1cc(=O)oc2cc(N*)ccc12

Assays:
Assay in all cases: Sirtuin activity with fluorogenic lysyl substrates
Assay type in all cases: biochemical
Conditions in all cases: 50 μM substrate, 500 μM NAD^+
[1] = target: T1, SIRT3 (Homo sapiens, UniProt Q9NTG7)
T1 construct: purchased ENZO Life Sciences BML-SE270
T1 sequence (Q9NTG7 1-399): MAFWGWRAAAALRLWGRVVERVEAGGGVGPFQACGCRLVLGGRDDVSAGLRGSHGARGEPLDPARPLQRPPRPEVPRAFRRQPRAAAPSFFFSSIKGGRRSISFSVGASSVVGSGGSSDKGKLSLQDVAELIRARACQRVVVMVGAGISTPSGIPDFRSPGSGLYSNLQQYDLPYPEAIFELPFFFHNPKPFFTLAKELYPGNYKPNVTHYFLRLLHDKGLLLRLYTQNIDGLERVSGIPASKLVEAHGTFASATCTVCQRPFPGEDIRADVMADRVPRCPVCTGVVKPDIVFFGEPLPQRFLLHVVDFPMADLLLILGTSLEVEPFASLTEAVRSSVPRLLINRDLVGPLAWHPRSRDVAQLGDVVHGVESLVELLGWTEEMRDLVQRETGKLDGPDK
Method: (§1) The Ac-Lys(Succ.)-AMC substrate was tested for activity with recombinant preparations of human HDACs 1-11, SIRTs 1-4, 6 and 7, a complex of HDAC3 with a fragment of the activating protein NCOR1 and with HeLa nuclear extract, a rich source of active HDACs in their native multiprotein complexes.
(§2) Enzyme and extract catalog products obtained from ENZO Life Sciences included: HDAC1 (Cat. # BML-SE456), HDAC2 (Cat. # BML-SE500), HDAC3 (Cat. # BML-SE507), HDAC3/NCOR1 Complex (Cat. # BML-SE515), HDAC6 (Cat. # BML-SE508), HDAC8 (Cat. # BML-SE145), HDAC10 (Cat. # BML-SE559), HDAC11 (Cat. # BML-SE560), SIRT1 (Cat. # BML-SE239), SIRT2 (Cat. # BML-SE251), SIRT3 (Cat. # BML-SE270), SIRT5 (Cat. # BML-SE555), HeLa Nuclear Extract (Cat. # BML-KI140), Trypsin (“Fluor de Lys Developer”, 80 mg/ml bovine trypsin in 1 mM HCl, Cat. # BML-KI105 or “Fluor de Lys Developer II”, 80 mg/ml bovine trypsin in 1 mM HCl, Cat. # BML-KI176). […] Enzymes obtained from BPS Bioscience, San Diego, Calif. included: human recombinants SIRT4 (Cat. #50015), SIRT6 (Cat. #50017), SIRT7 (Cat. #50018). HeLa whole cell extract was obtained from HeLa S3 cells (American Type Culture Collection) grown in a medium of MEM/10% fetal bovine serum (FBS) as follows: 1) 9×10^6 cells were suspended by trypsinization, followed by a phosphate buffered saline (PBS) rinse and addition of MEM/10% FBS (1.5 mL) to eliminate trypsin before transfer to a 15 mL conical tube; 2) cells were sedimented by a low speed centrifugation, gently resuspended in PBS and sedimented again and supernatant removed; 3) lysis was induced by resuspension in 0.8 mL 50 mM Tris/HCl, pH 8.0 with the non-denaturing detergent NP-40 (0.5%), placement on ice and brief vortexing every 5 min. for 30 min.; 4) 100 μl of a concentrated salt solution in the same buffer was added in order to bring the final buffer composition to 50 mM Tris/C1, pH 8.0, 137 mM NaCl, 2.7 mM KCl, 1 mM MgCl2, 0.5% NP-40; 5) particulate matter was cleared by centrifugation and the cleared lysate supernatant transferred to a 1.5 mL Eppendorf tube and stored on ice until use in activity assays.
(§3) Assays were performed at 37° C., according to the manufacturer's instructions for the “SIRT1 Fluorometric Drug Discovery Kit” from Enzo Life Sciences (ELS) (Cat. # BML-AK555), with exceptions described as follows. Where indicated in figures and text, SIRT1 enzyme was replaced with another enzyme or extract and the “Fluor de Lys-SIRT1 Substrate” (Ac-Arg-His-Lys-Lys(Ac)-AMC; ELS Cat. # BML-KI-177) was replaced with another acetylated, succinylated or trifluoroacetylated substrate.

[2] = target: T2, SIRT7 (Homo sapiens, UniProt Q9NRC8)
T2 construct: purchased BPS Bioscience 50018
T2 sequence (Q9NRC8 1-400): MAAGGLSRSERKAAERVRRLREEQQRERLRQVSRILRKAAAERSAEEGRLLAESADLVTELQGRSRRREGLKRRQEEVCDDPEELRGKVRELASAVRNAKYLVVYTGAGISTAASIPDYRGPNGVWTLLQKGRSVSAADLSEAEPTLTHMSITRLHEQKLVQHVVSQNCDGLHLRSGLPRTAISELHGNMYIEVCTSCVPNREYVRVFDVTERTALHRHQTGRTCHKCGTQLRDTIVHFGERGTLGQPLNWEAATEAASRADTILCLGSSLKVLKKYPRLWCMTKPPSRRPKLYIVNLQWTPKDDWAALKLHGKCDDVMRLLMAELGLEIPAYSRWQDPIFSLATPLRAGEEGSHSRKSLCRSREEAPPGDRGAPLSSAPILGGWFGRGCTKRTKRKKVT
Method: as §1, §2, §3

[3] = target: T3, SIRT6 (Homo sapiens, UniProt Q8N6T7)
T3 construct: purchased BPS Bioscience 50017
Method: as §1, §2, §3

T3 sequence (Q8N6T7 whole entry): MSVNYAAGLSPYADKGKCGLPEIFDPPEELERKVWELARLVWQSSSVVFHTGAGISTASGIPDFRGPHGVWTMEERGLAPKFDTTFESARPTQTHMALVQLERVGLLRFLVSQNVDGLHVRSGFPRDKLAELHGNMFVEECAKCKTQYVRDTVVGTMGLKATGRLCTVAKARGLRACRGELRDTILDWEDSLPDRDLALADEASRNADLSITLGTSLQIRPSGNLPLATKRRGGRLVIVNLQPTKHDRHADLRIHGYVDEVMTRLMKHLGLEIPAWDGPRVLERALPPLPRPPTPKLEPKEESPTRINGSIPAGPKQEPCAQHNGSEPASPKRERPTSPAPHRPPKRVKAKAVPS

Row | Compound | Activity [1] [pmol/min/µg] | Activity (pmol/min/μg) [2] | Activity [3] [pmol/min/µg] | Activity (pmol/min/μg) [3] | Activity (pmol/min/μg) [1]
1 | CC(=O)NCCCCC(NC(C)=O)C(=O)Nc1ccc2c(C)cc(=O)oc2c1 (stereo not drawn) [Ac-Lys(Ac.)-AMC, Ac-Lys(ε-acetyl)-AMC, reference compound] | 0.125 | Undetectable | – | – | –
2 | COC(=O)CCC(=O)NCCCC[C@H](NC(C)=O)C(=O)Nc1ccc2c(C)cc(=O)oc2c1 [Compound 5, N—(N^α-acetyl-L-Lysine(N^ε-methyl succinyl))-AMC] | 0.002 | Undetectable | 0.006 | – | –
3 | Ac-Arg-His-Lys-Lys(ε-acetyl)-AMC (Ac-RHKK(Ac)-{AMC}; SMILES CC(=O)NCCCC[C@H](NC(=O)[C@H](CCCCN)NC(=O)[C@H](Cc1c[nH]cn1)NC(=O)[C@H](CCCNC(=N)N)NC(C)=O)C(=O)Nc1ccc2c(C)cc(=O)oc2c1) [Ac-RHKK(Ac)-AMC, p53 peptide fluorogenic deacetylase substrate, Cat. # BML-KI177, reference compound] | – | – | – | Ac-RHKK(Ac)-AMC/0.052 pmol/min/μg | –
4 | CCCCCCCCCCCCCC(=O)NCCCC[C@H](NC(C)=O)C(=O)Nc1ccc2c(C)cc(=O)oc2c1 [Compound 4, N—(N^α-acetyl-L-Lysine(N^ε-myristoyl))-AMC] | 0.012 | Undetectable | 0.074 | – | –
5 | CC(=O)N[C@@H](CCCCNC(=O)CCC(=O)O)C(=O)Nc1ccc2c(C)cc(=O)oc2c1 [Compound 1, N—(N^α-acetyl-L-Lysine(N^ε-succinyl))-AMC] | – | Undetectable | – | Undetectable | Undetectable
